Consider two compounds from publication PMC8876511, “Two out of Three Musketeers Fight against Cancer: Synthesis, Physicochemical, and Biological Properties of Phosphino Cu^I, Ru^II, Ir^III Complexes” (Pharmaceuticals, 2022).

One data set concerns MCF-7 cells. As to the kind of experiment: MTT cytotoxicity assay, MCF-7. It is filed as cell-based, human. As for the experimental part:
(§1) Moreover, to investigate the activity of synthesized complexes as potential anticancer agents, their cytotoxicity toward a series of human cancer cell lines and a non-cancer cell line (HaCaT) was evaluated using the MTT assay. […] In addition, we also determined the cytotoxic activity of free ligands toward selected cancer cells. […] However, this effect depends on the cell line. […] The best values of cytotoxic activity of compounds have been obtained after 72 h of cell incubation. Additionally, synthesized complexes had high sensitivity to A549 cells, so this cell line was selected as the research subject for antitumor activity.
(§2) MCF7 cell line (human breast adenocarcinoma, morphology: epithelial-like, ATCC: HTB-22) and A549 cell line (human lung adenocarcinoma, morphology: epithelial, ATCC: CCL-185); HaCaT (human keratinocyte) were cultured in Dulbecco’s Modified Eagle’s Medium (DMEM, Corning, Poland) with phenol red, supplemented with 10% fetal bovine serum (FBS) and with 1% streptomycin/penicillin. Du-145 cell line (human prostate carcinoma); derived from metastatic site: brain was cultured in minimum essential medium (MEM, Corning) with only 10% fetal bovine serum (FBS). Cultures were incubated at 37 °C under a humidified atmosphere containing 5% CO2. Cells were passaged using a solution containing 0.05% trypsin and 0.5 mM EDTA. All media and other ingredients were purchased from ALAB, Poland.
(§3) Since most of the studied compounds are insoluble in aqueous media (Dulbecco’s Modified Eagle’s Medium or minimum essential medium (MEM, Corning), therefore, they needed to be pre-dissolved in DMSO for biological tests. DMSO concentration was kept below 1% in each tested concentration of each compound. […] In brief, 5×10^3 per well (0.2 mL) in the two first approaches, while 1×10^4 cells in the case of longer incubation time were seeded in 96-well flat-bottom microtiter plate, were incubated with the tested complexes at various ranges of concentrations. […] Various compound concentrations (dilutions in proper medium supplemented with 1% FBS) were tested in five replicates and repeated at least three times. Determined values of IC50 (concentration of a drug required to inhibit the growth of 50% of the cells) are given as mean + S.D. (Standard Deviation). IC50 values were determined, from the plots of cell viability in the presence of various concentrations of each compound by matching dose–response curves and using the Origin 9.0 software. Furthermore, post-treatment survival assessment of the treated cells was analyzed under an inverted fluorescence microscope (Olympus IC51, Japan) with an excitation filter 470/20 nm. For this, cells were stained with two versatile fluorescence dyes: fluorescein diacetate (FDA, 5 mg/mL) and propidium iodide (PI, 5 mg/mL) in standard conditions in the dark for 20 min. Before visualization, dyes were removed and cells were washed with PBS twice.

Data set [1] concerns HaCaT cells. In words: MTT cytotoxicity assay, HaCaT (non-cancer). It counts as cell-based, human. Conditions: 48 h.
Data set [2] concerns HaCaT cells. As to the kind of experiment: MTT cytotoxicity assay, HaCaT (non-cancer). It counts as cell-based, human. As for the experimental part: as §1, §2
(§4) Since most of the studied compounds are insoluble in aqueous media (Dulbecco’s Modified Eagle’s Medium or minimum essential medium (MEM, Corning), therefore, they needed to be pre-dissolved in DMSO for biological tests. DMSO concentration was kept below 1% in each tested concentration of each compound. Cytotoxicity was assessed by MTT assay performed according to the protocols described previously in the following experimental approaches: 6 h + 24 h, 24 h + 24 h, and 72 h + 24 h. In brief, 5×10^3 per well (0.2 mL) in the two first approaches, while 1×10^4 cells in the case of longer incubation time were seeded in 96-well flat-bottom microtiter plate, were incubated with the tested complexes at various ranges of concentrations. After an appropriate incubation time of 6, 24, or 72 h, the cells were washed thee time with PBS and fresh medium was applied for a further 24 h in each approach. Various compound concentrations (dilutions in proper medium supplemented with 1% FBS) were tested in five replicates and repeated at least three times. Determined values of IC50 (concentration of a drug required to inhibit the growth of 50% of the cells) are given as mean + S.D. (Standard Deviation). IC50 values were determined, from the plots of cell viability in the presence of various concentrations of each compound by matching dose–response curves and using the Origin 9.0 software. Furthermore, post-treatment survival assessment of the treated cells was analyzed under an inverted fluorescence microscope (Olympus IC51, Japan) with an excitation filter 470/20 nm. For this, cells were stained with two versatile fluorescence dyes: fluorescein diacetate (FDA, 5 mg/mL) and propidium iodide (PI, 5 mg/mL) in standard conditions in the dark for 20 min. Before visualization, dyes were removed and cells were washed with PBS twice.

Data set [3] has as its system A549 cells. In words: MTT cytotoxicity assay, A549. It is filed as cell-based, human. How it is done: as §1, §2, §4
A short description of another data set: Solubility (qualitative). It counts as physicochemical. Conditions: H2O:DMSO (100:1).
The subject of data set [4] is A549 cells. As to the kind of experiment: MTT cytotoxicity assay, A549. As to conditions: 48 h. It is filed as cell-based, human.
Data set [5] has as its system PANC-1 cells. In words: MTT cytotoxicity assay, PANC-1. It is filed as cell-based, human. How it is done:
as §1, §4

Data set [6] concerns PANC-1 cells. In words: MTT cytotoxicity assay, PANC-1. It is filed as cell-based, human. Conditions: 48 h.
Data set [7] in a line: Partition coefficient, shake-flask method (n-octanol/PBS). It counts as physicochemical. How it is done: The partition coefficient was determined by the shake-flask method. A small amount of compound was dissolved in 5 mL PBS-saturated n-octanol. The sample was sonicated until all the compound was dissolved. Next, 5 mL of PBS saturated with n-octanol was added and the experiment proceeded as before. The resulting mixture was vortexed for 30 min in horizontal position. The sample was centrifuged for 2 min at 3700 rpm to obtain a phase separation. Next, 2 mL of each phase was taken. The next steps were a 5 min sonication and measurement of absorption spectra of the obtained solutions. The calibration curve was prepared in order to determine the concentration of the tested compounds in individual solutions. It was made using the absorption intensity of the compounds in series dilution solutions in PBS saturated with octanol or octanol saturated with PBS in the concentration range c = 1–100 nM.

The next data set concerns Du-145 cells. As to the kind of experiment: MTT cytotoxicity assay, Du-145. It is filed as cell-based, human. As for the experimental part: as §1, §2, §3

Regarding `CCN(CC)C[P+](c1ccccc1)(c1ccccc1)[Ir-3]([Cl])([Cl])[C]1(C)C(C)=C(C)C(C)=C1C` [1a, Ir(η^5-Cp*)Cl2Ph2PCH2N(CH2CH3)2], the IC50 with MCF-7 cells (24 h) was 189 ± 9 µM; with MCF-7 cells (48 h), 184 ± 6 µM; with MCF-7 cells (72 h), 85 ± 8 µM; in the data set with HaCaT cells [1], 446 ± 26 µM; in the data set on HaCaT cells [2] (24 h) it was 456 ± 11 µM; in the data set on HaCaT cells [2] (72 h), 320 ± 19 µM. The IC50 in the data set with A549 cells [3] (24 h) came to 68 ± 5 µM; in the data set with A549 cells [3] (72 h), 12 ± 3 µM; in the data set on A549 cells [4], 45 ± 4 µM; with PANC-1 cells [5] (24 h) it was 143 ± 3 µM; in the data set with PANC-1 cells [5] (72 h), 91 ± 13 µM; in the data set on PANC-1 cells [6], 204 ± 29 µM. Besides, the results for the IC50 in the data set with Du-145 cells (24 h), in the data set on Du-145 cells (48 h) and in the data set on Du-145 cells (72 h) were 90 ± 5 µM, 85 ± 9 µM and 19 ± 3 µM, respectively. The “solubility in mixture of H2O:DMSO (100:1)” value in the data set “Solubility (qualitative)” is “well soluble”. In data set [7], the “Experimental LogP (logPo/w)” value was found to be 3.03.

For the compound “Ru(η^6-p-cymene)Cl2Ph2PCH2N(CH2CH3)2 [1b]”, the IC50 with MCF-7 cells (24 h) is 295 ± 12 µM; with MCF-7 cells (48 h), 352 ± 25 µM; in the data set with MCF-7 cells (72 h), 145 ± 15 µM; in the data set with HaCaT cells [1] it was 545 ± 33 µM; with HaCaT cells [2] (24 h) it was 446 ± 20 µM; with HaCaT cells [2] (72 h), 303 ± 20 µM. In addition, the IC50 was 59 ± 3 µM in the data set with A549 cells [3] (24 h); 10 ± 1 µM in the data set on A549 cells [3] (72 h); 425 ± 38 µM in the data set with A549 cells [4]; 146 ± 5 µM in the data set on PANC-1 cells [5] (24 h); 128 ± 14 µM with PANC-1 cells [5] (72 h); 305 ± 13 µM in the data set with PANC-1 cells [6]. Moreover, the IC50 is 122 ± 11 µM with Du-145 cells (24 h), 126 ± 12 µM with Du-145 cells (48 h) and 23 ± 2 µM with Du-145 cells (72 h). Also, in “Solubility (qualitative)”, the “solubility in mixture of H2O:DMSO (100:1)” value is listed as “well soluble”. Besides, the “Experimental LogP (logPo/w)” value in data set [7] turned out to be 3.1.
